The values that follow come from patent publication US8859818B2, “Electrophotographic photoreceptor” (Takasago International Corporation, priority 2010, dated 2014).

Data set [1] is described as follows: dissolution in binder polymer solution for film formation. It is filed as physicochemical. As for the experimental part: Into 85 parts by weight of tetrahydrofuran, 15 parts by weight of “Panlite TS-2020” (manufactured by Teijin Chemicals Ltd.) and 15 parts by weight of Compound (1-1) were dissolved by mixing. The solution was applied by using a doctor blade onto a sheet in which aluminum was vapor deposited on a polyethylene […] (PET) film, followed by drying at 80° C. for 3 hours. Thus, a charge transport layer was formed (thickness: 18 μm). Further, a translucent gold electrode was vapor deposited on this charge transport layer, and the charge carrier mobility was measured. For the measurement of the carrier mobility, a nitrogen gas laser having a pulse half width of […] and a wavelength of 337 nm was used as a light source, and the time-of-flight method (Toshiaki Tanaka, Yasuhiro Yamaguchi and Masaaki Yokoyama, Denshi Shashin (Electrophotography), 29, 366 (1990)) was employed. Table 1 and FIG. 1 show the results measured at 25° C. and 25 V/μm.
Experiments were conducted by using Comparative Compounds (1) to (6) in the same manner as in Example 1. […] Note that it was impossible to measure the mobility of Comparative Compounds (3) to (5) because of their insolubility.
Into 8 parts by weight of tetrahydrofuran, 1 part by weight of a polycarbonate “Z-200” (manufactured by Mitsubishi Engineering-Plastics Corporation) and 1 part by weight of Compound (1-1) or (1-2) were dissolved by mixing. The liquid was applied onto the charge generation layer, followed by drying at 80° C. for 2 hours, to thereby form a charge transport layer (thickness: approximately 20 μm). Thus, each electrophotographic photoreceptor was prepared.
Experiments were conducted by using Comparative Compounds (2) to (6) in the same manner as in Example 4. […] Note that it was impossible to measure the electrophotographic characteristics of Comparative Compounds (3) to (5) because of their insolubility.
Into 85 parts by weight of tetrahydrofuran, 15 parts by weight of “Panlite TS-2020” and 15 parts by weight of Compound (1-1) or (1-2) were dissolved by mixing. This liquid was applied onto a PET plate by using a doctor blade, followed by drying at 80° C. for 3 hours. Thus, a thin film was prepared (thickness: approximately 20 μm).
Experiments were conducted by using Comparative Compounds (3) to (5) in the same manner as in Example 6. […] Note that it was impossible to perform measurement of Comparative Compounds (3) to (5) because of their insolubility.

The nature of data set [2]: solubility in tetrahydrofuran. It counts as physicochemical. The following applies: 25° C., weight dissolved completely in 1 g tetrahydrofuran. The procedure:
Each of the Exemplified Compounds (1-1) and (1-2) was dissolved in 1 g of tetrahydrofuran at 25° C.
Experiments were conducted by using Comparative Compounds (3) to (5) in the same manner as in Example 8.

Where [3] appears, read: 1 part polycarbonate Z-200, 1 part compound, 8 parts tetrahydrofuran.
The mark [4] stands for this setting: 15 parts Panlite TS-2020, 15 parts compound, 85 parts tetrahydrofuran.

Usually melting point stands for the temperature, or range, at which the solid turns liquid.

In the case of `Cc1ccc(/C=C/c2ccc(N(c3ccc(/C=C/c4ccc(C)cc4)cc3)c3ccc(/C=C/c4ccc(C)cc4)cc3)cc2)cc1` [Comparative Compound (3)], the “dissolution in binder polymer solution” value in data set [1] (setting [3]) and in data set [1] (setting [4]) was “not successfully dissolved” in each case. The molecule also gave a Solubility in data set [2] of 0.08 g/g tetrahydrofuran.
As to `Cc1ccccc1/C=C/c1ccc(N(c2ccc(/C=C/c3ccccc3C)cc2)c2ccc(/C=C/c3ccccc3C)cc2)cc1` [Comparative Compound (4)], the “dissolution in binder polymer solution” value in data set [1] (setting [3]) and in data set [1] (setting [4]) was “not successfully dissolved” throughout. The Solubility in data set [2] is on record as 0.02 g/g tetrahydrofuran.
For `COc1ccc(/C=C/c2ccc(N(c3ccc(/C=C/c4ccc(OC)cc4)cc3)c3ccc(/C=C/c4ccc(OC)cc4)cc3)cc2)cc1` [Comparative Compound (5)], the “dissolution in binder polymer solution” value in data set [1] (setting [3]) and in data set [1] (setting [4]) was “not successfully dissolved” throughout. Moreover, the Solubility in data set [2] turned out to be 0.10 g/g tetrahydrofuran.
`Cc1cccc(C=Cc2ccc(N(c3ccc(C=Cc4cccc(C)c4)cc3)c3ccc(C=Cc4cccc(C)c4)cc3)cc2)c1` [Compound (1-1)] came in with a melting point of 98 to 99 °C. In data set [2], this molecule returned a Solubility of 0.40 g/g tetrahydrofuran.
Molecule `COc1cccc(C=Cc2ccc(N(c3ccc(C=Cc4cccc(OC)c4)cc3)c3ccc(C=Cc4cccc(OC)c4)cc3)cc2)c1` [Compound (1-2)] displayed a melting point of 145 to 146 °C. The Solubility in data set [2] was found to be 0.45 g/g tetrahydrofuran.
